Assay results as given in patent publication US8506926B2, “[18F]-furanosylpurine derivatives and uses thereof” (priority 2003, dated 2013).

Experiments:
[1] = test system: human colon tumor xenografts; conditions: Carson; Takahashi; cited from earlier work
[2] = Blood clearance after intravenous injection; format: in vivo, athymic nude mice; conditions: blood samples 1-120 minutes after i.v. injection
Protocol: Activity injected into each mouse was measured in a dose calibrator (Capintec). […] Activity in each blood sample was measured by a gamma counter, standardized for injected dose, and % injected dose per gram was calculated. Mean % injected dose per gram was plotted against time to obtain the blood clearance curve for each compound. Animals were anesthetized with Nembutal (40 mg/kg) and sacrificed at 2 hours post-injection. All organs including tumor were separated and weighed. Radioactivity in each organ was measured using a gamma counter. For each mouse, radioactivity uptake was expressed as % injected dose per gram, and as ratio of organ to blood uptake.

[3] = Micro-PET imaging studies; format: in vivo; conditions: for micro-PET image findings: 30 minutes, 1 hour and 2 hours post-injection; for wash out of activity with time (micro-PET): up to 2 hours post-injection
Protocol: PET imaging was performed using a Micro-PET scanner (Concorde Microsystems, Inc.), with 120 transaxial planes and spatial resolution of 2.0 mm, at 30 minutes, 1 hour and 2 hours post-injection. Images were reconstructed using Ordered Subset Expectation Maximization (OSEM) algorithm.

[4] = target: T1, herpes simplex virus thymidine kinase (HSV-tk) (Human herpesvirus 1, UniProt P0DTH5); assay: Tumor uptake in HSV-tk transduced versus wild type tumors on the same animal; format: in vivo; conditions: tumor uptake in transduced and wild type cells comparable
T1 construct: expressed in transfected cells
T1 sequence (P0DTH5 whole entry): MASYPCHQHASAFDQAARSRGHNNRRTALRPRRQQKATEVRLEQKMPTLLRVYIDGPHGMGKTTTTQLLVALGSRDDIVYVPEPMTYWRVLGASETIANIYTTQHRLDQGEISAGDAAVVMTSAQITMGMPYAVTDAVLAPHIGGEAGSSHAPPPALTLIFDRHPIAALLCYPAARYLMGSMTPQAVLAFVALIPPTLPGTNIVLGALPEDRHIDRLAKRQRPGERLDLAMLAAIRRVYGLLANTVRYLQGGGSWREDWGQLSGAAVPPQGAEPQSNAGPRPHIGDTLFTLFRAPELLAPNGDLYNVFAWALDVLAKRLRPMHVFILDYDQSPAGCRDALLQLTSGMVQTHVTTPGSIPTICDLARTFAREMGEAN

[5] = mouse, in vivo
[6] = cited from earlier work

Structure (SMILES)	blood clearance pattern [2]	micro-PET image findings [3]	wash out of activity with time (micro-PET) [3]	tissue of highest uptake [5]	also measured
Nc1nc(Cl)nc2c1ncn2[C@@H]1O[C@H](CO)[C@@H](O)[C@@H]1F [2′-deoxy-2′-fluoro-2-chloro-9-β-D-arabinofuranosyladenine]	–	–	–	–	activity against human colon tumor xenografts [1]: active
Nc1ncnc2c1ncn2[C@@H]1O[C@H](CO)[C@@H](O)[C@@H]1[18F] [[^18F]-FAA, 2′-deoxy-2′-[^18F]-fluoro-9-β-D-arabinofuranosyladenine]	clear rapidly from the blood initially, then slow down after 20 minutes post-injection	high uptake in spleen	wash out of activity with time was minimal	spleen	substrate for HSV-tk [4]: not a substrate for HSV-tk; Uptake in kidney [5]: 3.5%; Uptake in liver [5]: 2.4%; tumor uptake compared to the background activity [5]: more than 3 fold; uptake in tumors compared to blood [5]: 3.3 fold
Nc1ncnc2c1ncn2[C@@H]1O[C@H](CO)[C@H]([18F])[C@H]1O [[^18F]-FXA, 3′-deoxy-3′-[^18F]-fluoro-9-β-D-xylofuranosyladenine]	clear rapidly from the blood initially, then slow down after 20 minutes post-injection	activity is in the heart	did not wash out in 2 hours post-injection	heart	tumor/blood ratio [5]: less than 1
Nc1nc(=O)n([C@@H]2O[C@H](CO)[C@@H](O)[C@@H]2F)cc1[125I] [[^125I] labeled FIAC, [^125I]-2′-fluoro-5-iodo-1-β-D-arabinofuranosylcytosine]	–	–	–	–	deiodination in vivo [6]: extensive deiodination in vivo
